Data as given in the NIST ThermoML archive (doi:10.1021/acs.jced.8b00879).
Numbers after ± are expanded uncertainties.

Tests used:
[1] = 85 kPa, Liquid, Capillary tube (Ostwald / Ubbelohde) method
[2] = mn = molality of the nth substance listed, in mol/kg; conditions: 85 kPa, Liquid, m2 = 0; for viscosity: Capillary tube (Ostwald / Ubbelohde) method

| viscosity ([1]; 288.15 K) | viscosity ([1]; 298.15 K) | viscosity ([1]; 308.15 K) | viscosity ([1]; 318.15 K) | viscosity ([2]; 288.15 K) | viscosity ([2]; 298.15 K) | mass density ([2]; 298.15 K, Vibrating tube method) | viscosity ([2]; 308.15 K) | viscosity ([2]; 318.15 K) | Structure (SMILES) |
| --- | --- | --- | --- | --- | --- | --- | --- | --- | --- |
| 1.259 ± 0.12 mPa·s | 0.995 ± 0.12 mPa·s | 0.819 ± 0.12 mPa·s | 0.686 ± 0.12 mPa·s | – | – | – | – | – | O [water] |
| – | – | – | – | 1.259 ± 0.12 mPa·s | 0.995 ± 0.12 mPa·s | 997.38 ± 0.43 kg/m3 | 0.819 ± 0.12 mPa·s | 0.686 ± 0.12 mPa·s | O [water] + C[N+](C)(C)CCO.NCC(=O)[O-] |
| – | – | – | – | 1.259 ± 0.12 mPa·s | 0.995 ± 0.12 mPa·s | – | 0.819 ± 0.12 mPa·s | 0.686 ± 0.12 mPa·s | O [water] + C[N+](C)(C)CCO.O=C([O-])[C@@H]1CCCN1 |
